# Measurements reported in patent US20090186766A1, “Heteroaroyl-Substituted Alanines with a Herbicidal Action” (BASF SE, priority 2006, published 2009).
# Experiments:
# Amaranthus retroflexus = experiment: Greenhouse post-emergence herbicidal test; type: in vivo
# Text: (§1) The seeds of the test plants were sown separately for each species. For the post-emergence treatment, the test plants were first grown to a height of 3 to 15 cm, depending on the plant habit, and only then treated with the active compounds which had been suspended or emulsified in water. For this purpose, the test plants were either sown directly and grown in the same containers, or they were first grown separately as seedlings and transplanted into the test containers a few days prior to treatment. […] (active substance). Depending on the species, the plants were kept at 10-25° C. or 20-35° C. The test period extended over 2 to 4 weeks. During this time, the plants were tended, and their response to the individual treatments was evaluated. Evaluation was carried out using a scale from 0 to 100. 100 means no emergence of the plants, or complete destruction of at least the aerial parts, and 0 means no damage, or normal course of growth. The plants used in the greenhouse experiments belonged to the following species: [table]
# Chenopodium album = experiment: Greenhouse post-emergence herbicidal test; type: in vivo
# Text: as §1
# Setaria viridis = experiment: Greenhouse post-emergence herbicidal test; type: in vivo; conditions: application rate 1 kg/ha
# Text: The seeds of the test plants were sown separately for each species. For the post-emergence treatment, the test plants were first grown to a height of 3 to 15 cm, depending on the plant habit, and only then treated with the active compounds which had been suspended or emulsified in water. For this purpose, the test plants were either sown directly and grown in the same containers, or they were first grown separately as seedlings and transplanted into the test containers a few days prior to treatment. The rate of application for the post-emergence treatment was 1.0 kg/ha of a.s. (active substance). Depending on the species, the plants were kept at 10-25° C. or 20-35° C. The test period extended over 2 to 4 weeks. During this time, the plants were tended, and their response to the individual treatments was evaluated. Evaluation was carried out using a scale from 0 to 100. 100 means no emergence of the plants, or complete destruction of at least the aerial parts, and 0 means no damage, or normal course of growth. The plants used in the greenhouse experiments belonged to the following species: [table]
# Galium aparine = experiment: Greenhouse post-emergence herbicidal test; type: in vivo; conditions: application rate 0.25 kg/ha
# Text: as §1
SMILES,melting point [°C],post-emergence action against Amaranthus retroflexus (Amaranthus retroflexus; application rate 1 kg/ha),post-emergence action against Chenopodium album (Chenopodium album; application rate 1 kg/ha),post-emergence action against Setaria viridis (Setaria viridis),post-emergence action against Amaranthus retroflexus (Amaranthus retroflexus; application rate 0.25 kg/ha),post-emergence action against Chenopodium album (Chenopodium album; application rate 0.25 kg/ha),post-emergence action against Galium aparine (Galium aparine)
"CNC(=O)C(NC(=O)c1cn(C)nc1C(F)(F)F)C(COC(C)=O)c1ccccc1 (single isomer, unassigned) [Compound 3.7, 3-Methylcarbamoyl-3-[(1-methyl-3-trifluoromethyl-1H-pyrazole-4-carbonyl)amino]-2-phenylpropyl Acetate]",,very good,very good,very good,,,
"CNC(=O)C(NC(=O)c1cn(C)nc1C(F)(F)F)C(CO)c1ccccc1 (racemic) [Compound 3.1, N-(3-hydroxy-1-methylcarbamoyl-2-phenyl-propyl)-1-methyl-3-trifluoromethyl-1H-pyrazole-4-carboxamide]",194,very good,very good,very good,,,
"CNC(=O)C(NC(=O)c1cn(C)nc1C(F)(F)F)C(CO)c1ccccc1 (racemic) [Compound 3.2, N-(3-hydroxy-1-methylcarbamoyl-2-phenyl-propyl)-1-methyl-3-trifluoromethyl-1H-pyrazole-4-carboxamide]",202,very good,very good,very good,,,

# The next lines start with results.
melting point [°C],SMILES,post-emergence action against Amaranthus retroflexus (Amaranthus retroflexus; application rate 1 kg/ha),post-emergence action against Chenopodium album (Chenopodium album; application rate 1 kg/ha),post-emergence action against Setaria viridis (Setaria viridis),post-emergence action against Amaranthus retroflexus (Amaranthus retroflexus; application rate 0.25 kg/ha),post-emergence action against Chenopodium album (Chenopodium album; application rate 0.25 kg/ha),post-emergence action against Galium aparine (Galium aparine)
119,"CNC(=O)[C@H](NC(=O)c1cn(C)nc1C(F)(F)F)[C@H](C[N+](=O)[O-])c1ccccc1 (racemic) [Compound 5.3, 1-Methyl-N-{(1RS,2SR)-1-[(methylamino)carbonyl]-3-nitro-2-phenylpropyl}-3-(trifluoromethyl)-1H-pyrazole-4-carboxamide]",,,,very good,very good,very good
91,"CNC(=O)[C@@H](NC(=O)c1cn(C)nc1C(F)(F)F)[C@H](CN)c1ccccc1 (racemic) [Compound 4.5, N-{(1RS,2RS)-3-Amino-1-[(methylamino)carbonyl]-2-phenylpropyl}-1-methyl-3-(trifluoromethyl)-1H-pyrazole-4-carboxamide]",,,,,,
233,"CNC(=O)[C@H](NC(=O)c1cn(C)nc1C(F)(F)F)[C@H](CNC(=O)C(F)(F)F)c1ccccc1 (racemic) [Compound 4.17, 1-Methyl-N-{(1RS,2SR)-1-[(methylamino)carbonyl]-2-phenyl-3-(2,2,2-trifluoroacetylamino)propyl}-3-(trifluoromethyl)-1H-pyrazole-4-carboxamide]",,,,,,
